Our source for the solubility values is US20020147177A1, “Formulation of artemisinin” (priority 2001, published 2002).

The nature of this data set: Solubility in water, shaken five days, HPLC. The settings on record: thermodynamic from solid, room temperature (25° C.). The class given is physicochemical. How it is done:
[…] of each of the complexes and artemisinin crystals were separately shaken in 25 ml of water maintained at room temperature (25° C.) for five days. The solution was then filtered through a 0.2 μu membrane filter and suitably diluted before analysis. An analysis of the drug concentration in the solution was determined by high performance liquid chromatography using a method reported by Chan et al (1997).

In brackets after ≈: the same amount, converted by molar mass.

`C[C@@H]1CC[C@H]2[C@@H](C)C(=O)O[C@@H]3O[C@@]4(C)CC[C@@H]1[C@]32OO4` [artemisinin crystals, artemisinin] came in with a solubility at 5 days of 55.7 ± 1.75 µg/mL (≈ 197 µM).
